Patent publication US10653645B2, “Method for enhancing folding and transport of misfolded glucocerebrosidase” (The Hospital for Sick Children, priority 2007, dated 2020)
Read-outs that look alike come from different tables or passages of the source. Values belong to the molecule of their own block, whether it stands above or below them.

Legend:
[1] = molecular target: T1, human beta-glucocerebrosidase (GCase, CEREZYME) (Homo sapiens, UniProt P04062, R534H); assay: GCase activity fluorometric assay (inhibition, kinetics, pH dependence)
T1 sequence (P04062 40-536 R534H): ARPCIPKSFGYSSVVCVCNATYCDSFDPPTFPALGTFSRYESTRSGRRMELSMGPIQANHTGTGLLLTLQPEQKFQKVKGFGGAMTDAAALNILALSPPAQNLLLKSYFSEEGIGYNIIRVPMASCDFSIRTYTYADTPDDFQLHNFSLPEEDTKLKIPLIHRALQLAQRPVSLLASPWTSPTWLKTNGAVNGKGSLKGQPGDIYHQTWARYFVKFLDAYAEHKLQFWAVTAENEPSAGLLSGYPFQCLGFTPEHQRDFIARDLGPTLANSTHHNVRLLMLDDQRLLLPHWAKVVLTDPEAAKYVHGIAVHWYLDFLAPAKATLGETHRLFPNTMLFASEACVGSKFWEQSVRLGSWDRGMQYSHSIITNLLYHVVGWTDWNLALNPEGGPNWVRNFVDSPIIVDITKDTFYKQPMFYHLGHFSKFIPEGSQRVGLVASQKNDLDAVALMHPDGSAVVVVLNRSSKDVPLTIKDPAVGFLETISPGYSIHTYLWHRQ
Description: (§1) Experiments set forth herein and related to the activity and function of GCase in the presence and absence of compounds of the invention were conducted using imiglucerase (CEREZYME, Genzyme) as the GCase. Cellular materials were obtained from fibroblast lysates expressing wild-type GCase and separately from fibroblast lysates derived from Gaucher disease patient cell lines carrying genotypes that encode either the N370S/N370S or F213I/L444P substitutions in GCase.
(§2) Quantitative determinations of enzymatic activity were performed by way of fluorometric assays utilizing the artificial substrate 4-methylumbelliferyl 2-acetamido-2-deoxy-beta-D-glucopyranoside (MUGlc). Reactions were performed at room temperature for 15-30 minutes, as indicated, using equal aliquots of enzyme (25 μL 20 mM Citrate Phosphate pH 5.5, 0.4% Taurodeoxycholate (TC)) and substrate (25 μL 20 mM Citrate Phosphate pH 5.5, MUGlc 1.6 mM). The amount of MU-fluorophore released in each assay was monitored fluorometrically using a spectrophotofluorometer following the addition of a 4-fold (200 μl) excess of 0.1M MAP, pH 10.5.
The activity of GCase was also assayed at several different pH values, including 4.5, 5.0, 5.5, 6.0, 6.5 and 7.0.

wild type (WT) GCase = molecular target: T2, wild type (WT) GCase (Homo sapiens, UniProt P04062, R534H); assay: Heat denaturation of GCase at 50° C.; format: biochemical; conditions: for increase of the half life of GCase: 20 μM
T2 construct: purchased Genzyme
T2 sequence (P04062 40-536 R534H): T1 sequence (P04062 40-536 R534H)
Description: as §1, §2

[2] = tested on: Gaucher disease fibroblast cell lines harboring the N370S/N370S missense mutation; assay: Immunohistochemical fluorescence labeling, colocalization of GCase and Lamp-1; format: cell-based, human; conditions: N370S/N370S fibroblasts
Description: Immunohistochemical fluorescence labeling of GD fibroblast cell lines harboring the N370S/N370S missense mutation were performed with rabbit polyclonal anti-GCase and mouse anti-Lamp-1 (lysosomal membrane associated protein). Cell nuclear staining was performed with 4′-6′-diamidino-2-phenylindole. […] (FIG. 6A, staining with anti-GCase in the presence of ABX; FIG. 6B, staining with anti-Lamp-1 in the presence of ABX; FIG. 6C, merger of FIGS. 6A and 6B; FIG. 6D, staining with anti-GCase in the presence of IFG; FIG. 6E, staining with anti-Lamp-1 in the presence of IFG; FIG. 6F, merger of FIGS. 6D and 6E; FIG. 6G, staining with anti-GCase in the absence of drug; FIG. 6H, staining with anti-Lamp-1 in the absence of drug; FIG. 6I, merger of FIGS. 6G and 6H.)
Immunohistochemical fluorescence labeling of Gaucher disease fibroblast cell lines harboring the N370S/N370S missense mutation was performed with rabbit polyclonal anti-GCase and mouse anti-Lamp-1 (lysosomal membrane associated protein). Cell nuclear staining was performed with 4′-6′-diamidino-2-phenylindole. […] Restored activity and trafficking of mutant GCase are the ultimate goals of a pharmacological chaperone-based therapeutic strategy.

SMILES: Nc1c(Br)cc(Br)cc1CN[C@H]1CC[C@H](O)CC1 [Ambroxol, trans-4-(2-amino-3,5-dibromobenzylamino) cyclohexanol]
inhibition of GCase under acidic conditions ([1]; 25 μM ambroxol, pH 4.5, 5.0, 5.5, 6.0, 6.5 and 7.0 assayed): only marginally inhibited
mode of inhibition of GCase ([1]; kinetic analysis): competitive inhibitor
increase of the half life of GCase (wild type (WT) GCase): more than three-fold
increase in GCase activity remaining after incubation (wild type (WT) GCase; highest concentration of ambroxol, vs DMSO): more than three-fold
Colocalization of GCase and Lamp-1 at the lysosome (rescue of mutant GCase trafficking) [2]: Colocalization of GCase and Lamp-1 occurs at the lysosome

SMILES: CN(Cc1cc(Br)cc(Br)c1N)C1CCCCC1 [Bromhexine, 2-amino-3,5-dibromo-N-cyclohexyl-N-methylbenzenemethanamine]
IC50 [1]: 60 µM
inhibitory activity compared with ambroxol ([1]; Table 2 IC50 values): two fold reduction

SMILES: Nc1c(Br)cc(Br)cc1Br [Tribromoaniline]
IC50 ([1]; 0.3 mM MUbGlc as the substrate): Tribromoaniline (NI −1000)

SMILES: CCC(=O)Oc1c(Br)cc(Br)cc1Br [Tribromophenyl Propanoate]
IC50 [1]: > 1000 µM

SMILES: OC[C@H]1CNC[C@@H](O)[C@@H]1O [isofagomine]
increase of the half life of GCase (wild type (WT) GCase): more than three-fold

Next, values leading:

IC50 ([1]; 0.3 mM MUbGlc as the substrate): Dibromoaniline (NI −1000)
SMILES: Nc1ccc(Br)cc1Br [Dibromoaniline]

IC50 [1]: > 1000 µM
SMILES: O=C(Nc1ccc(Br)cc1Br)c1ccccc1 [Dibromophenyl Benzamide]
